Peptide text beside a SMILES is read from it. * marks the point of attachment. NOTA = O=C(O)CN1CCN(CC(=O)O)CCN(CC(=O)*)CC1; AEEEA = NCCOCCOCCOCC(=O)O
Experiments:
[1] = [^18F]F-FDG PET/CT imaging in cancer patients; assay type: in vivo, human
Procedure: The program content was explained to all healthy volunteers and cancer patients, and written informed consent was obtained. Whole-body dynamic imaging was conducted for 60 min using a PET/CT 690 Elite scanner (GE Discovery) immediately after intravenous injection of [^68Ga]Ga-HN11-1 (3.1 to 4.9 MBq/kg). A static body scan was performed 15 to 45 min after injection. All cancer patients underwent [^18F]F-FDG and [^68Ga]Ga-HN11-1 PET/CT imaging within 5 d. Two nuclear medicine physicians reconstructed and reviewed the images on GE aw 4.6 workstations and reached a consensus. They delineated the ROIs and measured the values of maximum standard uptake and average standard uptake (SUVmax and SUVmean). The biological distribution of [^68Ga]Ga-HN11-1 in healthy volunteers was determined by SUVmax and SUVmean. The OLINDA/EXM software (version 1.0, Hermes Medical Solutions AB) was used to estimate the human radiation dose based on the SUVmean of each organ.

[2] = Adult, PET/CT; cited from earlier work
From the text: The kidney received the highest doses (9.83 × 10^−2 ± 2.10 × 10^−2 mSv/MBq).

A549-PD-L2 cell lines = test: Cell uptake assay; assay type: cell-based; conditions: A549-PD-L2 cells, n = 5; for cell uptake rate: mean ± SD
Procedure: Cell uptake assays were conducted to measure the uptake of [^68Ga]Ga-HN11-1 and [^68Ga]Ga-HN11-2 in A549 and A459-PD-L2 cell lines following incubation periods of 15, 30, 60, and 90 min. Blocking studies were performed by coincubating cells with an excess of precursor (HN11-1 / HN11-2), and then the cell uptakes of [^68Ga]Ga-HN11-1 and [^68Ga]Ga-HN11-2 were performed in A459-PD-L2 cell lines after 60 min of incubation. The experiment details are provided in the SI.
All tumor cells (1 × 10^6 per well) were seeded in two 24 - well plates, incubated for 24 h and then added with […] of [^68Ga]Ga-HN11-1 or [^68Ga]Ga-HN11-2 per well. After 15, 30, 60 and 90 min of uptake, the cells were separated from the medium, washed with 500 μL of cold PBS for three times and dissolved with 1 M NaOH. At different time points, these cells were collected and counted by using a γ-counter (WIZARD 2480, Pekin Elmer). For in vitro blocking experiments, cells were co-incubated with 10 μg of cold HN11-1 or HN11-2 precursor. After incubation, the cells were washed, collected and measured with a γ-counter, either. The IC50 values of [^68Ga]Ga-HN11-1 or [^68Ga]Ga-HN11-2 were determined using GraphPad Prism 8.0.2 software, respectively.

[3] = tested on: A549-PD-L2 tumor xenograft models; test: Dynamic micro-PET imaging in A549-PD-L2 xenografts; assay type: in vivo, BALB/C nude mice; conditions: n = 3
Procedure: Micro-PET imaging was conducted using an Inveon PET scanner (Siemens, Germany). Dynamic PET examine were acquired over the first 60 min following the simultaneous injection of 7.4 to 9.25 MBq (200 to 250 μCi) of [^68Ga]Ga-HN11-1 and [^68Ga]Ga-HN11-2. After reconstructing the images and delineating the regions of interest (ROIs), time-radioactivity curves were plotted to obtain the Tumor/Muscle (T/M) ratios. %ID/g represents the percentage of the injected dose of the radiotracer that accumulates in a specific tissue per gram of tissue weight. For the biodistribution study, the xenograft models received an intravenous injection of 3.7 to 5.5 MBq (100 to 150 μCi) of [^68Ga]Ga-HN11-1. After the designated period (10, 30, 60, and 90 min), the mice were euthanized, and important tissues and organs were dissected and collected. The samples were counted using the γ-counter for determining the %ID/g, presented as mean ± standard deviation (SD).
A549 cell lines were provided by the China Center for Type Culture Collection (CCTCC) and cultured in RPMI-1640 medium supplemented with 10 % fetal bovine serum and 100 U/mL penicillin-streptomycin. The lentivirus system was implemented to introduce PD-L2 (PDCD1LG2) over-expressed cDNA into the A549 cells. The viral vectors were produced in 293T cells and co-transfected with the psAX2, pMD2G and PD-L2 plasmids. A549 cells transduced with the vectors were selectively grown in 1.6 μg/mL puromycin. Transfection efficiency was identified by WB and real-time quantitative PCR. All the cells were cultured in an incubator at 37° C with 5 % CO2 atmosphere. A549 and A549-PD-L2 cells (5 × 10^6, 200 μL)were subcutaneously implanted into the right shoulder of BALB/C nude mice (male, 4-6 weeks), respectively. When the tumors reached to 5 - 8 mm in diameter, the mice were subjected to in vivo and ex vivo studies. All the mice were purchased from the Laboratory Animal Center of Central South University.

[4] = Partition coefficient (log P), 1-octanol/PBS; assay type: physicochemical; conditions: shake-flask 3 mL 1-octanol / 3 mL PBS pH 7.4, vortex 10 min, centrifugation 10,000 rpm 10 min, γ-counter, mean ± SD, n = 5
Procedure: The partition coefficients were assessed using the method described previously. [^68Ga]Ga-HN11-1 and [^68Ga]Ga-HN11-2 was respectively introduced into a mixture comprising 3 mL of 1-octanol and 3 mL of phosphate-buffered saline (PBS) with a pH of 7.4. Following vortexing for 10 minutes and subsequent centrifugation at 10,000 rpm for 10 minutes, samples were taken from both layers and counted using a γ-counter. The log P was determined using the formula: log P = log([M]oct/[M]aq). All measurements were conducted using 5 independent samples and are presented as mean ± standard deviation (SD).

[5] = Pharmacokinetics in blood; assay type: in vivo; conditions: healthy BALB/C mouse, i.v. 5.55 MBq, noncompartmental model, Phoenix WinNonlin 8.1
Procedure: (§1) The static PET/CT imaging in A549 and A549-PD-L2 xenograft models after injection of 5.55 to 7.4 MBq (150 to 200 μCi) of [^68Ga]Ga-HN11-1 or [^68Ga]Ga-HN11-2 were acquired at 60 min. In the [^68Ga]Ga-HN11-1 + block or [^68Ga]Ga-HN11-2 + block groups, the xenograft models underwent pretreatment via intravenous injection of HN11-1 or HN-2 (10 mg/kg) before PET/CT imaging. Then, ROIs were delineated for each group. After imaging, tumor tissues from both the A549 and A459-PD-L2 xenograft tumors were extracted, and the PD-L2 expression was tested by IHC. For the pharmacokinetics study, healthy BALB/C mouse received an intravenous injection of 5.55 MBq (150 μCi) of [^68Ga]Ga-HN11-1 and [^68Ga]Ga-HN11-2. Measure the activity of blood samples (%ID/g, mean ± SD) at the corresponding time points, and the time-activity curve was plotted. Subsequently, pharmacokinetic parameters were tested using the noncompartmental model in Phoenix WinNonlin 8.1 software (Certara, USA).

[6] = tested on: A549-PD-L2 xenograft models; test: Static PET/CT imaging with blocking; assay type: in vivo, BALB/C nude mice; conditions: 60 min, pretreatment i.v. with excess HN11-1 / HN11-2 (10 mg/kg), n = 3
Procedure: as §1

[7] = In vitro stability in serum (radio-HPLC); assay type: in vitro ADME; conditions: room temperature, over 4 h (0.5, 1, 2, 4 h), 3.74 MBq, read-out: in vitro stability in serum (radiochemical purity)
Procedure: (§2) The in vitro stability of [^68Ga]Ga-HN11-1 and [^68Ga]Ga-HN11-2 (3.74 MBq) in saline and serum was tested by radio-HPLC analysis of its radiochemical purity after incubation at room temperature for 0.5 , 1 , 2 and 4 h.

[8] = In vitro stability in saline (radio-HPLC); assay type: physicochemical; conditions: room temperature, over 4 h (0.5, 1, 2, 4 h), 3.74 MBq
Procedure: as §2

patients with NSCLC = test: Clinical response to anti-PD-1 therapy in NSCLC patients; assay type: in vivo, human
From the text: We evaluated the clinical relevance between the expression of PD-L2 in tumor tissues and anti-PD-1 immunotherapy (pembrolizumab) in 49 patients with NSCLC, as assessed by PD-L2 IHC score data from these patients. The median age was 60 years (range, 41 to 86 y), male (81.6%). About 57.1% of the patients had distant metastasis (M1 stage), and 42.9% of the patients had received ≥2 other treatment before anti-PD-1 therapy (Table). […] patients were classified as PD-L1-positive expression, […] as PD-L2-positive expression, 21 (42.9%) as PD-L1 negative, and 27 (55.1%) as PD-L2 negative (Fig. 1A). […] (Fig. 1A). […] (Fig. 1A). In the 49 patients, PD-L2-positive was identified as a statistically significant predictor of better PFS (P < 0.05) (Fig. 1B), but it was not a statistically significant predictor of relapse-free survival (Fig. 1C).

For `OC[C@H]1O[C@@H](O)[C@H]([18F])[C@@H](O)[C@@H]1O` [[^18F]F-FDG], the “FDG SUVmax” value ([1]; patient 1, NSCLC, lung) was 15.5, the “FDG SUVmax” value ([1]; patient 2, NSCLC, lung) was 25.9 and the “FDG SUVmax” value ([1]; patient 3, rHNSCC, buccal) was 13.7. For the same molecule, the “FDG SUVmax” value ([1]; patient 4, rHNSCC, buccal) was 4.0, the “FDG SUVmax” value ([1]; patient 5, mHNSCC, tongue) was 4.0 and the “FDG SUVmax” value ([1]; patient 6, mHNSCC, laryngeal) was 3.7. For the same molecule, the effective dose [2] was 1.9 × 10^−2 mSv/MBq.
In the case of `CC[C@H](C)[C@H](NC(=O)[C@H](CCCNC(=N)N)NC(=O)[C@H](C)NC(=O)[C@H](CCCCN)NC(=O)[C@@H](NC(=O)[C@H](CCCNC(=N)N)NC(=O)[C@H](CCCNC(=N)N)NC(=O)[C@@H](NC(=O)[C@H](Cc1c[nH]cn1)NC(=O)COCCOCCOCCNC(=O)CN1CCN(CC(=O)O)CCN(CC(=O)O)CC1)C(C)C)[C@@H](C)O)C(=O)N[C@@H](CCCNC(=N)N)C(=O)N[C@@H](CC(N)=O)C(=O)O` [[^68Ga]Ga-HN11-2, metal not drawn] ({NOTA-AEEEA}-HVRRTKARIRN-OH), the cell uptake rate (A549-PD-L2 cell lines; 30 min incubation, γ-counter) is reported as 1.55 ± 0.08%, the “cell uptake, block group” value (A549-PD-L2 cell lines; 60 min, with excess (10 μg) of cold HN11-1 / HN11-2 precursor) is reported as 0.61 ± 0.03% and the cell uptake rate (A549-PD-L2 cell lines; 60 min incubation) is reported as 2.47 ± 0.13%. For the same molecule, the tumor uptake ([3]; 10 min after injection) was 1.71 ± 0.14 %ID/g, the tumor uptake ([3]; 20 min after injection) was 2.17 ± 0.12 %ID/g and the tumor uptake ([3]; 30 min after injection) was 2.29 ± 0.17 %ID/g. The tumor uptake ([3]; 40 min after injection) was 2.10 ± 0.03 %ID/g, the tumor uptake ([3]; 50 min after injection) was 1.97 ± 0.07 %ID/g and the tumor uptake ([3]; 60 min after injection) was 1.82 ± 0.06 %ID/g. The logD [4] was -0.27 ± 0.0018, the half-life in blood [5] was 22.66 min and the “tumor uptake after blocking” value [6] was 0.82 ± 0.04 %ID/g. For the same molecule, the remaining at 4 h [7] was over 95% and the “in vitro stability in saline (radiochemical purity)” value [8] was over 95%.
Molecule pembrolizumab: anti-PD-1 immunotherapy has a response rate (patients with NSCLC; PD-L1-positive alone, 95% CI 63.4 to 93.8) of 78.6%, an objective response rate (patients with NSCLC; PD-L1-positive but PD-L2-negative, 95% CI 56.3 to 96.6) of 76.5% and an objective response rate (patients with NSCLC; PD-L1-positive while PD-L2 unknown, 95% CI 63.4 to 93.8) of 78.6%. It also gave a response rate (patients with NSCLC; PD-L2-positive alone, 95% CI 59.8 to 94.8) of 77.3%, an objective response rate (patients with NSCLC; both PD-L1- and PD-L2-positive, 95% CI 59.0 to 100.0) of 81.8% and a response rate (patients with NSCLC; both PD-L1 and PD-L2 negative group, 95% CI 29.6 to 90.4) of 60.0%.
